Measurements reported in patent US20260224566A1, “Obicetrapib and Ezetimibe Combination Treatment and Fixed Dose Pharmaceutical Compositions” (NewAmsterdam Pharma B.V., priority 2023, published 2026).
Structures can show the parent of a compound that is named as a salt.

Legend:
[1] = Kinetic solubility in FeSSIF (pH 5.0) at 37° C.; type: physicochemical; conditions: as obicetrapib free acid
Excerpt: (§1) The amorphous form has a higher kinetic solubility and dissolution rate than the crystalline form (and by extension obicetrapib itself). Both crystalline and amorphous obicetrapib hemicalcium kinetic solubility determinations were made in biorelevant media at different pHs, namely at about 5.0 (FeSSIF conditions) and at pH of about 6.5 (FaSSIF) conditions as set forth in Example 11.28.
The concentrations in Table W are those of obicetrapib (i.e., the free acid).
(§2) The solids were magnetically stirred at 600 RPM in a shaker bath and samples were drawn with a 1.0 ml syringe at T=15 mins, 30 mins, 60 mins, 90 mins and 120 mins. The solubility was measured using HPLC method provided by the client. The compound was added to 4.0 ml glass vials at approximately 20.0 mg/ml. Samples were agitated with a vortex mixer for about 5 minutes to ensure the presence of undissolved excess powder. The sample collected at each time point was centrifuged at 1200 RPM, filtered with 0.45 μm Polytetrafluoroethylene (PTFE) filters and diluted with methanol before HPLC analysis. In order to minimize the effect of potential analyte adsorption on the filter, the initial 0.5 mL of supernatant passing through the filter was discarded prior to collecting sample for HPLC analysis.

[2] = Stability study at 70° C./75% RH, open vial (physical stability by XRPD, chemical purity by HPLC); type: physicochemical; conditions: 75% relative humidity
Excerpt: FIG. 54 is a plot of x-ray powder diffraction pattern taken of crystalline obicetrapib hemicalcium, and FIG. 55 is a plot of x-ray powder diffraction patterns taken of crystalline obicetrapib hemicalcium under stress conditions. In FIG. 55, there are four diffraction patterns shown based on stability study set forth in Example 11.27. Pattern 1 is an x-ray powder diffraction pattern of a sample of amorphous obicetrapib hemicalcium. Pattern 2 is the x-ray powder diffraction pattern of a sample of crystalline obicetrapib hemicalcium. In pattern 3, the sample of crystalline obicetrapib hemicalcium was exposed to 70° C. at 75% relative humidity for one day. […] Pattern 1 was taken before the sample was placed on stability.
Stability study was conducted on crystalline and amorphous forms of obicetrapib at 70° C./75% relative humidity (RH). The solids were placed into a 4.0 ml glass vial without caps (open condition) and stored at 70° C./75% RH. […] The solids were analyzed by XRPD for physical stability and by HPLC for chemical purity. The sample collected at each time point was dissolved in methanol before HPLC analysis. In order to minimize the effect of potential analyte adsorption on the filter, the initial 0.5 mL of supernatant passing through the filter was discarded prior to collecting sample for HPLC analysis. Purity for each sample was determined based on peak area percent and compared to the sample at T=0.

[3] = Kinetic solubility in FaSSIF (pH 6.5) at 37° C.; type: physicochemical; conditions: as obicetrapib free acid
Excerpt: as §1
The concentrations in Table X are those of obicetrapib (i.e., the free acid).
as §2

[4] = test system: ApoE*3-Leiden.CETP transgenic mice; assay: Example 12: plasma lipids, VLDL clearance, LDL receptor, fecal and biliary sterols in ApoE*3-Leiden.CETP mice; type: in vivo, mouse
Excerpt: Obicetrapib is a selective cholesteryl ester transfer protein (CETP) inhibitor currently in clinical development for the treatment of hypercholesterolemia and reduction of cardiovascular risk that strongly reduces Apolipoprotein B (ApoB) and low-density lipoprotein cholesterol (LDL-C) and concomitantly increases plasma high-density lipoprotein cholesterol (HDL-C). Ezetimibe reduces absorption of biliary and dietary cholesterol from the small intestine, thereby reducing LDL-C levels. The current study was carried out to elucidate the mechanism of action responsible for the observed decrease in non-HDL-C by obicetrapib monotherapy and in combination with ezetimibe in a translational mouse model for hyperlipidemia and atherosclerosis.
(§3) The experimental protocol is illustrated in FIG. 71, with time (t) measured in weeks. Female ApoE*3-Leiden.CETP transgenic mice were fed a Western diet with 0.05% w/w cholesterol (equivalent to daily human intake) with (i) no drug (control), or the same diet containing (ii) obicetrapib alone (2 mg/kg/day), (iii) ezetimibe alone (1 mg/kg/day) or (iv) the combination of obicetrapib and ezetimibe. In the experiment, the effects of the treatments on, amongst other things, plasma blood lipids and fecal bile acids and sterols were determined.

[5] = test system: patients with hypercholesterolemia; conditions: cited from earlier work
[6] = cited from earlier work
[7] = test system: participants currently receiving high-intensity statin therapy; assay: ROSE2 Phase 2b clinical trial: LDL-C and other lipid efficacy endpoints; type: in vivo, human; conditions: ROSE2; ezetimibe 10 mg on top of obicetrapib 10 mg
Procedure: The primary objective of this study is to evaluate the effect of obicetrapib 10 mg+ezetimibe 10 mg combination therapy compared with placebo, when used as an adjunct to high-intensity statin therapy, on LDL-C at Day 84.
The secondary objectives of this study include the following, in hierarchical order: • To evaluate the effect of obicetrapib 10 mg monotherapy compared with placebo, when used as an adjunct to high-intensity statin therapy, on LDL-C at Day 84; • To evaluate the effect of obicetrapib 10 mg+ezetimibe 10 mg combination therapy compared with placebo, when used as an adjunct to high-intensity statin therapy, on ApoB at Day 84; and • To evaluate the effect of obicetrapib 10 mg monotherapy compared with placebo, when used as an adjunct to high-intensity statin therapy, on ApoB at Day 84.
This study will be a placebo-controlled, double-blind, randomized, Phase 2 study to evaluate the efficacy, safety, and tolerability of obicetrapib 10 mg, both in combination with ezetimibe 10 mg and as monotherapy, as an adjunct to high-intensity statin therapy. This study will take place at approximately 20 sites in the United States.
Up to 2 weeks after the Screening Visit, participants will return to the site on Day 1 (Visit 2) and confirm study eligibility before being randomized and beginning treatment. Approximately 114 eligible participants (38 participants per treatment group) will be randomized in a 1:1:1 ratio to 1 of the following treatment groups: • Combination therapy: Obicetrapib 10 mg+ezetimibe 10 mg (administered as one 10 mg obicetrapib tablet and one 10 mg ezetimibe capsule); • Obicetrapib monotherapy: Obicetrapib 10 mg (administered as one 10 mg obicetrapib tablet and 1 placebo capsule); or. • Placebo (administered as 1 placebo tablet and 1 placebo capsule).
During the 12-week Treatment Period, the assigned study drugs will be administered by the participants orally with water, once daily on Day 1 to Day 84 at approximately the same time each morning. Participants will return to the site on Day 28 (±2 days), Day 84 (±2 days), and Day 112 (±2 days) for efficacy, safety, and pharmacokinetic (PK) assessments. Participants, Investigators, the Clinical Research Organization (CRO), and the Sponsor will be blinded to all lipid results from Day 1 (Visit 2) for the first participant until all enrolled participants complete the Day 84 (End of Treatment) visit or are withdrawn from the study, in order to protect blinding to treatment assignment.
The primary efficacy endpoint is the percent change from Day 1 to Day 84 in LDL-C for the obicetrapib 10 mg+ezetimibe 10 mg combination treatment group compared with the placebo group.
The secondary efficacy endpoints include the following, in hierarchical order: • Percent change from Day 1 to Day 84 in LDL-C for the obicetrapib 10 mg monotherapy. • treatment group compared with the placebo group; • Percent change from Day 1 to Day 84 in ApoB for the obicetrapib 10 mg+ezetimibe 10 mg • combination treatment group compared with the placebo group; and • Percent change from Day 1 to Day 84 in ApoB for the obicetrapib 10 mg monotherapy treatment group compared with the placebo group.
The exploratory efficacy endpoints include the following: • Percent change from Day 1 to Day 84 in non-HDL-C, VLDL-C, HDL-C, TG, ApoE, Lp(a), and HDL-ApoE for the obicetrapib 10 mg+ezetimibe 10 mg combination treatment group compared with the placebo group and for the obicetrapib 10 mg monotherapy treatment group compared with the placebo group; and • Proportion of participants at Day 84 that achieve LDL-C <2.6 mmol/L (<100 mg/dL), LDL-C <1.8 mmol/L (<70 mg/dL), and LDL-C <1.3 mmol/L (<50 mg/dL) for the obicetrapib 10 mg+ezetimibe 10 mg combination treatment group compared with the placebo group and for the obicetrapib 10 mg monotherapy treatment group compared with the placebo group. […]

[8] = test system: ApoE*3-Leiden.CETP transgenic mice; assay: Example 13: plasma cholesterol and atherosclerosis development in aortic root of ApoE*3-Leiden.CETP mice; type: in vivo, mouse
Procedure: The current study was carried out to evaluate the effect of obicetrapib monotherapy and a combination of obicetrapib+ezetimibe on atherosclerosis development in a translational mouse model for hyperlipidemia and atherosclerosis.
as §3, with “82,” for “71,”, “(on average 0.6” for “(1”, “ezetimibe.” for “ezetimibe. In the experiment, the effects of the treatments on, amongst other things, plasma blood lipids and fecal bile acids and sterols were determined.”

[9] = 15 mins, listed as Amorphous obicetrapib hemicalcium Batch #1
[10] = 15 mins, listed as Amorphous obicetrapib hemicalcium Batch #2
[11] = 30 mins, listed as Amorphous obicetrapib hemicalcium Batch #1
[12] = 30 mins, listed as Amorphous obicetrapib hemicalcium Batch #2
[13] = 60 mins, listed as Amorphous obicetrapib hemicalcium Batch #1
[14] = 60 mins, listed as Amorphous obicetrapib hemicalcium Batch #2
[15] = 90 mins, listed as Amorphous obicetrapib hemicalcium Batch #1
[16] = 90 mins, listed as Amorphous obicetrapib hemicalcium Batch #2
[17] = 120 mins, listed as Amorphous obicetrapib hemicalcium Batch #1
[18] = 120 mins, listed as Amorphous obicetrapib hemicalcium Batch #2
[19] = obicetrapib 2 mg/kg/day, ezetimibe 1 mg/kg/day in Western diet
[20] = obicetrapib 2 mg/kg/day, ezetimibe on average 0.6 mg/kg/day in Western diet

CCOC(=O)N1c2ccc(C(F)(F)F)cc2[C@@H](N(Cc2cc(C(F)(F)F)cc(C(F)(F)F)c2)c2ncc(OCCCC(=O)O)cn2)C[C@H]1CC [amorphous obicetrapib hemicalcium, amorphous hemicalcium salt of (2R,4S)-4-{[3,5-bis(trifluoromethyl)benzyl]-[5-(3-carboxypropoxy)pyrimidin-2-yl]amino}-2-ethyl-6-trifluoromethyl-3,4-dihydro-2H-quinoline-1-carboxylic acid ethyl ester]
Concentration in Solution [1, 9]: 520 µg/mL | Concentration in Solution [1, 10]: 502 µg/mL | Concentration in Solution [1, 11]: 661 µg/mL | Concentration in Solution [1, 12]: 618 µg/mL | Concentration in Solution [1, 13]: 675 µg/mL | Concentration in Solution [1, 14]: 628 µg/mL | Concentration in Solution [1, 15]: 696 µg/mL | Concentration in Solution [1, 16]: 658 µg/mL | Concentration in Solution [1, 17]: 675 µg/mL | Concentration in Solution [1, 18]: 642 µg/mL | physical stability by XRPD ([2]; 7 days): remained amorphous | physical stability by XRPD ([2]; 14 days): remained amorphous | Concentration in Solution [3, 9]: 60 µg/mL | Concentration in Solution [3, 10]: 90 µg/mL | Concentration in Solution [3, 11]: 99 µg/mL | Concentration in Solution [3, 12]: 140 µg/mL | Concentration in Solution [3, 13]: 163 µg/mL | Concentration in Solution [3, 14]: 229 µg/mL | Concentration in Solution [3, 15]: 201 µg/mL | Concentration in Solution [3, 16]: 293 µg/mL | Concentration in Solution [3, 17]: 244 µg/mL | Concentration in Solution [3, 18]: 387 µg/mL

CCOC(=O)N1c2ccc(C(F)(F)F)cc2[C@@H](N(Cc2cc(C(F)(F)F)cc(C(F)(F)F)c2)c2ncc(OCCCC(=O)[O-])cn2)C[C@H]1CC.CCOC(=O)N1c2ccc(C(F)(F)F)cc2[C@@H](N(Cc2cc(C(F)(F)F)cc(C(F)(F)F)c2)c2ncc(OCCCC(=O)[O-])cn2)C[C@H]1CC.[Ca+2] [crystalline obicetrapib hemicalcium, reference compound]
physical stability by XRPD ([2]; 7 days): the result remains the same | physical stability by XRPD ([2]; one day): near total loss of crystallinity

O=C1[C@H](CC[C@H](O)c2ccc(F)cc2)[C@@H](c2ccc(O)cc2)N1c1ccc(F)cc1 [ezetimibe, (3R,4S)-1-(4-fluorophenyl)-3-[(3S)-3-(4-fluorophenyl)-3-hydroxypropyl]-4-(4-hydroxyphenyl)azetidin-2-one]
biliary bile acids and biliary bile acid flow ([4]; not shown): did not affect | biliary cholesterol flow ([4]; not shown): no significant effects | biliary cholesterol levels ([4]; not shown): decreased | biliary phospholipids and biliary phospholipid flow ([4]; not shown): did not affect | fecal neutral sterol excretion, change [4, 19]: +68% | half-life of VLDL-like particles, change [4, 19]: −23% | non-HDL-C levels, change [4, 19]: −24% | total plasma cholesterol levels, change [4, 19]: −23% | incremental reduction in LDL-C levels in combination with statins ([5]; Catapano et al. 2016): 15-20% | LDL-C reduction typical with ezetimibe mono-therapy ([5]; hyperlipidemic patients, Catapano et al. 2016): 15-22% | greater reduction in LDL-C, statin and ezetimibe in combination compared with statin alone ([5]; meta-analysis of 27 studies, more than 21,000 patients): 15.1% | solubility in water [6]: practically insoluble | additional/incremental (median) reduction of LDL-C of ezetimibe added on top of obicetrapib [7]: about 32% | HDL-cholesterol ([8]; FIG. 84B): no increase | severe lesions (types IV-V), change ([8]; aortic root, 28 weeks of treatment): −31% | total atherosclerotic lesion size, change ([8]; aortic root, 28 weeks of treatment, versus control): −50% | non-HDL-C levels, change [8, 20]: −19% | total plasma cholesterol levels, change [8, 20]: −19% | lesion number ([8]; versus control animals, FIG. 90B): no reduction
